Source: patent US10981860B2, “Caspase inhibitor and pharmaceutical composition, use and therapeutic method thereof” (Chia Tai Tianqing Pharmaceutical Group Co., Ltd., priority 2016, dated 2021)

Tested on: Anti-Fas-induced Jurkat cells
Test: Anti-Fas-induced apoptosis of Jurkat cells in vitro (Caspase 3 substrate Ac-DEVD-AMC fluorescence)
Type: cell-based
Details: Homo sapiens; Jurkat Clone E6-1, Anti-Fas 50 ng/mL, 24 hours, Ac-DEVD-AMC 10 μM

Structure (SMILES)	EC50
O=C(O)C[C@H](NC(=O)[C@@H]1CCCN(C(=O)Oc2ccccc2)C1)C(=O)COc1c(F)c(F)cc(F)c1F [Example 31]	21.4 nM
O=C(O)C[C@H](NC(=O)C1CCN(C(=O)c2ccncc2)CC1)C(=O)COc1c(F)c(F)cc(F)c1F [Example 37]	23.9 nM
O=C(O)C[C@H](NC(=O)C1CN(C(=O)OCc2ccccc2)CCO1)C(=O)COc1c(F)c(F)cc(F)c1F (stereo partly drawn) [Example 24]	49.7 nM
O=C(O)C[C@H](NC(=O)C1CCN(C(=O)c2nc3ccccc3[nH]2)CC1)C(=O)COc1c(F)c(F)cc(F)c1F [Example 42]	25.2 nM
O=C(O)C[C@H](NC(=O)C1CCN(C(=O)c2ncccn2)CC1)C(=O)COc1c(F)c(F)cc(F)c1F [Example 38]	22 nM
CC(C)(C)c1ccccc1NC(=O)C(=O)N1CCC(F)(C(=O)N[C@@H](CC(=O)O)C(=O)COc2c(F)c(F)cc(F)c2F)CC1 [Example 21]	97.9 nM
CC(C)(C)c1ccccc1NC(=O)C(=O)N1CC[C@@H](C(=O)N[C@@H](CC(=O)O)C(=O)COc2c(F)c(F)cc(F)c2F)C2CCCCC21 (stereo partly drawn) [Example 19]	224 nM
CC(C)(C)c1ccccc1NC(=O)C(=O)N1CC=CC[C@@H](C(=O)N[C@@H](CC(=O)O)C(=O)COc2c(F)c(F)cc(F)c2F)C1 [Example 12]	52.5 nM
O=C(O)C[C@H](NC(=O)C1CCN(C(=O)Nc2ccccc2)CC1)C(=O)COc1c(F)c(F)cc(F)c1F [Example 80]	17.5 nM
O=C(O)C[C@H](NC(=O)C1CCN(C(=O)c2nc3ccccc3s2)CC1)C(=O)COc1c(F)c(F)cc(F)c1F [Example 58]	16.6 nM
O=C(O)C[C@H](NC(=O)C1CCN(S(=O)(=O)c2ccccc2)CC1)C(=O)COc1c(F)c(F)cc(F)c1F [Example 81]	959 nM
CC(C)(C)c1ccccc1NC(=O)C(=O)N1C[C@H](C(=O)N[C@@H](CC(=O)O)C(=O)COc2c(F)c(F)cc(F)c2F)Cc2ccccc21 [Example 16]	417 nM
CC1(C(=O)N[C@@H](CC(=O)O)C(=O)COc2c(F)c(F)cc(F)c2F)CCN(C(=O)C(=O)Nc2ccccc2C(C)(C)C)CC1 [Example 20]	698 nM
O=C(O)C[C@H](NC(=O)C1CCN(C(=O)OCc2ccccc2)C1)C(=O)COc1c(F)c(F)cc(F)c1F (stereo partly drawn) [Example 22]	34.2 nM
O=C(O)C[C@H](NC(=O)[C@@H]1CCCN(C(=O)NC2CCCC2)C1)C(=O)COc1c(F)c(F)cc(F)c1F [Example 29]	57.4 nM
CC(C)(C)c1ccccc1C(=O)N1CCC(C(=O)N[C@@H](CC(=O)O)C(=O)COc2c(F)c(F)cc(F)c2F)CC1 [Example 53]	67.5 nM
CC1(C(=O)N2CCC(C(=O)N[C@@H](CC(=O)O)C(=O)COc3c(F)c(F)cc(F)c3F)CC2)CCCC1 [Example 52]	21 nM
O=C(O)C[C@H](NC(=O)[C@H]1CC[C@H](NC(=O)OCc2ccccc2)CC1)C(=O)COc1c(F)c(F)cc(F)c1F [Example 25]	70.7 nM
O=C(O)C[C@H](NC(=O)C1CCN(C(=O)c2nccc3ccccc23)CC1)C(=O)COc1c(F)c(F)cc(F)c1F [Example 34]	43 nM

The remaining lines, values ahead:

EC50	Structure (SMILES)
64.7 nM	CN(C(=O)C(=O)N1CCC(C(=O)N[C@@H](CC(=O)O)C(=O)COc2c(F)c(F)cc(F)c2F)CC1)c1ccccc1C(C)(C)C [Example 64]
96 nM	CC(C)[C@H]1CC[C@H](C)C[C@@H]1OC(=O)N1CCC(C(=O)N[C@@H](CC(=O)O)C(=O)COc2c(F)c(F)cc(F)c2F)CC1 [Example 77]
42.4 nM	O=C(O)C[C@H](NC(=O)C1CCN(C(=O)C(=O)NCCC2CCCC2)CC1)C(=O)COc1c(F)c(F)cc(F)c1F [Example 62]
16.3 nM	O=C(O)C[C@H](NC(=O)C1CCN(C(=O)c2ccno2)CC1)C(=O)COc1c(F)c(F)cc(F)c1F [Example 85]
44.2 nM	O=C(O)C[C@H](NC(=O)C1CCN(C(=O)C(=O)N2CCCC2)CC1)C(=O)COc1c(F)c(F)cc(F)c1F [Example 90]
17.5 nM	O=C(O)C[C@H](NC(=O)C1CC2(CCN(C(=O)C3CCCC3)CC2)C1)C(=O)COc1c(F)c(F)cc(F)c1F [Example 106]
31.5 nM	O=C(O)C[C@H](NC(=O)C1CCN(C(=O)O[C@@H]2C[C@H]3CC[C@@H]2C3)CC1)C(=O)COc1c(F)c(F)cc(F)c1F [Example 100]
26 nM	O=C(O)C[C@H](NC(=O)C1CCN(C(=O)NC2CCCC2)CC1)C(=O)COc1c(F)c(F)cc(F)c1F [Example 79]
38 nM	O=C(O)C[C@H](NC(=O)C1CCN(C(=O)C(=O)NCC2CCCC2)CC1)C(=O)COc1c(F)c(F)cc(F)c1F [Example 63]
9.15 nM	O=C(O)C[C@H](NC(=O)[C@@H]1COCCN(C(=O)c2noc3ccccc23)C1)C(=O)COc1c(F)c(F)cc(F)c1F [Example 128]
35 nM	O=C(O)C[C@H](NC(=O)C1CCN(c2noc3ccccc23)CC1)C(=O)COc1c(F)c(F)cc(F)c1F [Example 84]
165 nM	CC(C)(C)c1ccccc1NC(=O)C(=O)N1CCCC[C@@](C)(C(=O)N[C@@H](CC(=O)O)C(=O)COc2c(F)c(F)cc(F)c2F)C1 [Example 112]
38.9 nM	CC(C)(C)c1ccccc1NC(=O)C(=O)N1CCOC[C@@H](C(=O)N[C@@H](CC(=O)O)C(=O)COc2c(F)c(F)cc(F)c2F)C1 [Example 123]
52.8 nM	O=C(O)C[C@H](NC(=O)C1CCN(C(=O)OCc2cc(Cl)ccc2Cl)CC1)C(=O)COc1c(F)c(F)cc(F)c1F [Example 96]
192 nM	CC(C)(C)c1ccccc1NC(=O)C(=O)N1CCCO[C@H](C(=O)N[C@@H](CC(=O)O)C(=O)COc2c(F)c(F)cc(F)c2F)C1 [Example 109]
383 nM	CC(C)(C)c1ccccc1NC(=O)C(=O)N1CCCO[C@@H](C(=O)N[C@@H](CC(=O)O)C(=O)COc2c(F)c(F)cc(F)c2F)C1 [Example 110]
24 nM	O=C(O)C[C@H](NC(=O)C1CCN(c2nc3ccccc3o2)CC1)C(=O)COc1c(F)c(F)cc(F)c1F [Example 83]
112 nM	CC(C)[C@@H]1CC[C@@H](C)C[C@H]1OC(=O)N1CCC(C(=O)N[C@@H](CC(=O)O)C(=O)COc2c(F)c(F)cc(F)c2F)CC1 [Example 97]
23 nM	CC(C)(C)c1ccccc1NC(=O)C(=O)N1CCCC[C@](C)(C(=O)N[C@@H](CC(=O)O)C(=O)COc2c(F)c(F)cc(F)c2F)C1 [Example 111]
157 nM	CC(C)(C)c1cc(Cl)ccc1NC(=O)C(=O)N1CCC(C(=O)N[C@@H](CC(=O)O)C(=O)COc2c(F)c(F)cc(F)c2F)CC1 [Example 59]
61.3 nM	O=C(O)C[C@H](NC(=O)C1CCN(C(=O)C(=O)Nc2cc(Cl)ccc2Cl)CC1)C(=O)COc1c(F)c(F)cc(F)c1F [Example 101]
49.6 nM	O=C(O)C[C@H](NC(=O)C1CCN(C(=O)C(=O)Nc2ccc(Cl)cc2C(F)(F)F)CC1)C(=O)COc1c(F)c(F)cc(F)c1F [Example 60]
8.98 nM	O=C(O)C[C@H](NC(=O)C1CCN(C(=O)N2CCCC2)CC1)C(=O)COc1c(F)c(F)cc(F)c1F [Example 89]
50.4 nM	O=C(O)C[C@H](NC(=O)C1CCN(C(=O)C(=O)NC2CCCC2)CC1)C(=O)COc1c(F)c(F)cc(F)c1F [Example 61]
35.9 nM	O=C(O)C[C@H](NC(=O)C1CCN(C(=O)NCc2ccccc2)CC1)C(=O)COc1c(F)c(F)cc(F)c1F [Example 78]
28.7 nM	CC(C)(C)c1ccccc1NC(=O)C(=O)N1CCOC[C@H](C(=O)N[C@@H](CC(=O)O)C(=O)COc2c(F)c(F)cc(F)c2F)C1 [Example 124]
